Among the test systems are ACHN renal; CAKI-1 renal; K-562 leukemia; MOLT-4 leukemia; OVCAR-5 ovarian; RPMI-8226 leukemia; SN12C renal; UACC-62 melanoma; UO-31 renal; HL-60(TB) leukemia; SK-MEL-28 melanoma.
Holding throughout (assay): DTP human tumour cell line panel, 48 h

What is called TGI is the concentration at which net growth stops.

The structures appear in SMILES notation.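 Grown in 96-well plates, cells were treated for 48 hours with each compound at five concentrations. Insufficient inhibition: endpoint recorded as highest concentration tested. TGI: concentration producing complete growth inhibition.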 Where a SMILES comes first, the peptide text is derived from it. Bridges are numbered along the chain shown (N, C = ends). [ ]: non-standard residue; d: D form. Aib = CC(C)(N)C(=O)O; βAla = NCCC(=O)O

As for `CC(=O)NC1C(OC(C)C(=O)NC(C)C(=O)NC(CCC(=O)NCCCCCNc2ccc([N+](=O)[O-])c3[nH]c4ccccc4c(=O)c23)C(N)=O)C(O)C(CO)OC1(C)OCc1ccccc1` (stereo not drawn), the TGI is more than 100 µM in the experiment on ACHN renal; more than 100 µM in the experiment on CAKI-1 renal; more than 100 µM in the experiment on K-562 leukemia; more than 100 µM in the experiment with MOLT-4 leukemia; more than 100 µM in the experiment with OVCAR-5 ovarian; 70.1 µM in the experiment with RPMI-8226 leukemia. Also, the TGI with SN12C renal, in the experiment with UACC-62 melanoma and in the experiment on UO-31 renal was more than 100 µM in each case.

Take `O=c1oc2ccc3ccccc3c2cc1-c1nnc(Nc2ccccc2)s1`: the TGI with ACHN renal was 27.2 µM; in the experiment on CAKI-1 renal, more than 100 µM; with K-562 leukemia, more than 100 µM; in the experiment with MOLT-4 leukemia, more than 100 µM; in the experiment with OVCAR-5 ovarian, more than 100 µM; with RPMI-8226 leukemia, 50.9 µM. For the same compound, the TGI in the experiment with SN12C renal was more than 100 µM; in the experiment on UACC-62 melanoma it was 53.9 µM; with UO-31 renal it was 39.4 µM.

As for `N#CC(c1ccccc1)N(CCCCCCN(C(=O)c1ccccc1)C(C#N)c1ccccc1)C(=O)c1ccccc1` (stereo not drawn), the TGI in the experiment on ACHN renal, with CAKI-1 renal, in the experiment with HL-60(TB) leukemia, in the experiment on K-562 leukemia, in the experiment on MOLT-4 leukemia and in the experiment on OVCAR-5 ovarian was more than 100 µM throughout. Further, the total growth inhibition concentration (TGI) in the experiment with SK-MEL-28 melanoma was more than 100 µM; with SN12C renal, more than 100 µM; with UACC-62 melanoma, 77.7 µM; in the experiment on UO-31 renal, 46.1 µM.

Turning to `CN=C1Nc2ccccc2C(=O)N2CSCC12` (stereo not drawn), the TGI with ACHN renal, with CAKI-1 renal, in the experiment on K-562 leukemia, in the experiment with MOLT-4 leukemia, with OVCAR-5 ovarian and in the experiment with RPMI-8226 leukemia was more than 100 µM in each case. Also, the concentration for total growth inhibition (TGI) with SK-MEL-28 melanoma, in the experiment with SN12C renal, in the experiment with UACC-62 melanoma and in the experiment with UO-31 renal was more than 100 µM in each case.

As to `CC(C)[N+]([O-])(CCCNc1c2ccccc2nc2cccc([N+](=O)[O-])c12)C(C)C`, the total growth inhibition concentration (TGI) is 0.44 µM with ACHN renal; 6.2 µM in the experiment with CAKI-1 renal; 2.69 µM with HL-60(TB) leukemia; more than 100 µM in the experiment with K-562 leukemia; 1.31 µM with OVCAR-5 ovarian; 0.0875 µM in the experiment with RPMI-8226 leukemia. The TGI in the experiment with SK-MEL-28 melanoma worked out at 0.175 µM; in the experiment on SN12C renal, 0.862 µM; in the experiment with UACC-62 melanoma it was 0.356 µM; in the experiment with UO-31 renal it was 1.35 µM.

Take `CC(=O)O[C@@H]1C[C@]2(C(=O)c3ccccc3)C(=O)C(=O)S[C@]12c1ccccc1`: the TGI in the experiment with ACHN renal was more than 100 µM; in the experiment with CAKI-1 renal it was more than 100 µM; in the experiment on K-562 leukemia it was 85 µM; in the experiment on MOLT-4 leukemia, more than 100 µM; with OVCAR-5 ovarian, more than 100 µM; with RPMI-8226 leukemia, 99.4 µM. The TGI in the experiment on SK-MEL-28 melanoma, in the experiment with SN12C renal, in the experiment with UACC-62 melanoma and with UO-31 renal was more than 100 µM throughout.

With `CC[C@]12C=CCN3CC[C@@]4(c5cc(N=O)c(OC)cc5N(C)[C@H]4[C@@](O)(C(=O)OC)[C@@H]1OC(C)=O)[C@@H]32`, the TGI with ACHN renal, in the experiment with CAKI-1 renal, in the experiment with HL-60(TB) leukemia, in the experiment on K-562 leukemia, with MOLT-4 leukemia and in the experiment on OVCAR-5 ovarian was more than 100 µM each time. In addition, the TGI in the experiment on SK-MEL-28 melanoma, in the experiment with SN12C renal, in the experiment with UACC-62 melanoma and with UO-31 renal was more than 100 µM throughout.

`COC(=O)[C@]12CC3C=CC1N(C3)C(CBr)c1c2n(S(=O)(=O)c2ccccc2)c2ccccc12` (stereo partly drawn): the TGI was more than 100 µM in the experiment with ACHN renal; more than 100 µM in the experiment with CAKI-1 renal; more than 100 µM with HL-60(TB) leukemia; 0.314 µM in the experiment on K-562 leukemia; more than 100 µM in the experiment on OVCAR-5 ovarian; 23.5 µM with RPMI-8226 leukemia. For the same compound, the TGI in the experiment with SK-MEL-28 melanoma, in the experiment with SN12C renal, in the experiment with UACC-62 melanoma and with UO-31 renal was more than 100 µM each time.

On to `CC(/C=C/C(=O)NO)=C\C(C)C(=O)c1ccc(N(C)C)cc1` (stereo not drawn), for which the TGI in the experiment on ACHN renal came out at 0.0942 µM; in the experiment on CAKI-1 renal, 0.0863 µM; in the experiment on HL-60(TB) leukemia it was 2.53 µM; in the experiment with OVCAR-5 ovarian, 4.6 µM; with RPMI-8226 leukemia, 74.1 µM; in the experiment with SK-MEL-28 melanoma, 14.8 µM. For the same compound, the concentration for total growth inhibition (TGI) is 0.206 µM with SN12C renal, 0.063 µM in the experiment on UACC-62 melanoma and 0.262 µM in the experiment with UO-31 renal.

In the case of `O=C1C2C(C(=O)N1c1ccccc1)C1(c3ccccc3)CCC2(C(=O)c2ccccc2)O1` (stereo not drawn), the total growth inhibition concentration (TGI) in the experiment with ACHN renal, with CAKI-1 renal, in the experiment on HL-60(TB) leukemia, in the experiment on MOLT-4 leukemia, in the experiment on OVCAR-5 ovarian and in the experiment on RPMI-8226 leukemia was more than 10 µM each time. Further, the concentration for total growth inhibition (TGI) with SK-MEL-28 melanoma, in the experiment with SN12C renal, in the experiment with UACC-62 melanoma and in the experiment on UO-31 renal was more than 10 µM in each case.

Turning to `CSC12c3cc(C)n(-c4ccc([N+](=O)[O-])cc4)c3CC(C)(C)CN1C(=O)C2Oc1ccccc1` (stereo not drawn), the TGI in the experiment with ACHN renal, in the experiment with CAKI-1 renal, in the experiment on K-562 leukemia, in the experiment with MOLT-4 leukemia, in the experiment on OVCAR-5 ovarian and with RPMI-8226 leukemia was more than 100 µM each time. Moreover, the total growth inhibition concentration (TGI) with SK-MEL-28 melanoma, in the experiment with SN12C renal, with UACC-62 melanoma and in the experiment on UO-31 renal was more than 100 µM throughout.

Consider `CC1(C)NC(=O)C(NC(=O)C(N)CC(=O)O)CCCCNC(=O)CCNC1=O` (stereo not drawn) (H-DK[Aib][βAla]; lactam 2-C; configuration not given here), for which the total growth inhibition concentration (TGI) in the experiment with ACHN renal, in the experiment on CAKI-1 renal, in the experiment on K-562 leukemia, in the experiment on MOLT-4 leukemia, with OVCAR-5 ovarian and in the experiment with RPMI-8226 leukemia was more than 100 µM throughout. For the same compound, the TGI with SK-MEL-28 melanoma, in the experiment on UACC-62 melanoma and in the experiment on UO-31 renal was more than 100 µM in each case.

As for `CSC1=N/C(=C\c2ccc(Cl)cc2)C(=O)N1CN1CCCCC1`, the TGI was 96.2 µM with ACHN renal; more than 100 µM in the experiment on K-562 leukemia; more than 100 µM in the experiment with MOLT-4 leukemia; more than 100 µM in the experiment on OVCAR-5 ovarian; more than 100 µM with RPMI-8226 leukemia; more than 100 µM in the experiment with SK-MEL-28 melanoma. Besides, the TGI with SN12C renal, with UACC-62 melanoma and in the experiment on UO-31 renal was more than 100 µM in each case.

In the case of `CC(=O)Nc1ccc2c3c(cc(O)c2c1)N(C(=O)CCCC(=O)N1CC(CCl)c2c1cc(O)c1cc(NC(C)=O)ccc21)CC3CCl` (stereo not drawn), the total growth inhibition concentration (TGI) in the experiment on ACHN renal is less than 0.0112 µM; in the experiment on CAKI-1 renal, 0.183 µM; with HL-60(TB) leukemia, 0.0153 µM; in the experiment with K-562 leukemia, more than 100 µM; with OVCAR-5 ovarian, 0.276 µM; with RPMI-8226 leukemia, 0.0182 µM. Further, the total growth inhibition concentration (TGI) in the experiment on SK-MEL-28 melanoma was more than 100 µM; with SN12C renal it was more than 100 µM; in the experiment on UACC-62 melanoma, 0.0173 µM; in the experiment with UO-31 renal, 0.0604 µM.

For the compound `CO/C=C/C=C(\C#N)C(=O)OC`, the TGI in the experiment on ACHN renal, in the experiment on CAKI-1 renal, in the experiment with K-562 leukemia, in the experiment with MOLT-4 leukemia, in the experiment with OVCAR-5 ovarian and with RPMI-8226 leukemia was more than 100 µM throughout. The TGI in the experiment with SK-MEL-28 melanoma, in the experiment on SN12C renal, in the experiment on UACC-62 melanoma and in the experiment with UO-31 renal was more than 100 µM in each case.

For `CCOC1OC(COC(=O)C(C)(C)C)C(O)CC1n1cc(C)c(=O)[nH]c1=O` (stereo not drawn), the concentration for total growth inhibition (TGI) with ACHN renal, with CAKI-1 renal, with K-562 leukemia, in the experiment on OVCAR-5 ovarian, with RPMI-8226 leukemia and in the experiment on SK-MEL-28 melanoma was more than 100 µM throughout. Moreover, the TGI with SN12C renal, in the experiment on UACC-62 melanoma and in the experiment on UO-31 renal was more than 100 µM in each case.

With `CC1=C(C#N)C(=C(C#N)C#N)OC1(C)Cc1ccccc1` (stereo not drawn), the total growth inhibition concentration (TGI) in the experiment with ACHN renal was 32.7 µM; in the experiment on CAKI-1 renal, 50.9 µM; with K-562 leukemia, more than 100 µM; in the experiment with MOLT-4 leukemia it was 67.3 µM; in the experiment on OVCAR-5 ovarian, more than 100 µM; with RPMI-8226 leukemia it was 96.8 µM. Further, the TGI was more than 100 µM with SK-MEL-28 melanoma, more than 100 µM in the experiment with SN12C renal, 50.4 µM in the experiment on UACC-62 melanoma and 37 µM with UO-31 renal.

In the case of `N#CC12C(=O)NC(=O)C1(C#N)C1C=CC2CC1` (stereo not drawn), the total growth inhibition concentration (TGI) with ACHN renal, in the experiment with CAKI-1 renal, with HL-60(TB) leukemia, with MOLT-4 leukemia, in the experiment with OVCAR-5 ovarian and in the experiment with RPMI-8226 leukemia was more than 100 µM in each case. Besides, the TGI in the experiment on SK-MEL-28 melanoma, in the experiment with SN12C renal, with UACC-62 melanoma and with UO-31 renal was more than 100 µM in each case.

For the compound `COc1cccc(/C=N/n2c(Cc3ccccc3)n[nH]c2=O)c1`, the TGI with ACHN renal, in the experiment with CAKI-1 renal, with K-562 leukemia, in the experiment with MOLT-4 leukemia, with OVCAR-5 ovarian and in the experiment on RPMI-8226 leukemia was more than 100 µM each time. Further, the concentration for total growth inhibition (TGI) in the experiment with SK-MEL-28 melanoma was more than 100 µM; in the experiment with SN12C renal it was more than 60.3 µM; in the experiment on UACC-62 melanoma, more than 100 µM; with UO-31 renal, more than 100 µM.

`COc1ccc2c3c1OC1C(F)C=CC4(O)C(C2)NCCC314` (stereo not drawn): the TGI in the experiment with ACHN renal is 10.8 µM; with CAKI-1 renal it was 6.56 µM; with K-562 leukemia it was more than 100 µM; in the experiment on MOLT-4 leukemia, 3.76 µM; with OVCAR-5 ovarian it was 12.8 µM; in the experiment with SK-MEL-28 melanoma, 10.7 µM. For the same compound, the results for the TGI in the experiment on SN12C renal, with UACC-62 melanoma and in the experiment on UO-31 renal were 10.3 µM, 10.5 µM and 4.62 µM, respectively.

Source of the values: PubChem BioAssay (NCI).
